# Experimental data as given in US20230250070A1, “DIHYDROOXAZOLE AND THIOUREA DERIVATIVES MODULATING THE NLRP3 INFLAMMASOME PATHWAY” (AC IMMUNE SA, priority 2020, published 2023).
# Legend:
# [1] = tested on: NLRP3 inflammasome pathway; assay: LPS-ATP induced peritonitis mouse model, IL-1β in peritoneal lavage; format: in vivo, C57BL/6 female mice; settings: for inhibition of IL-1β release in peritoneal lavage samples (FIG. 1): mice dosed 1 mg/kg or 3 mg/kg by intraperitoneal injection, n=6, p<0.0001 vs vehicle-treated group; for % IL-1 beta inhibition vs vehicle (peritoneal lavage samples): mice, intraperitoneal 1 mg/kg or 3 mg/kg (dose not given), 15 min before ATP
# Method: C57BL/6 female mice aged 6 to 8 weeks were randomized into experimental groups. Mice were challenged intraperitoneally with 50 µg/kg LPS. Two hours later, mice received i.p. 200 µL of ATP (Adenosine TriPhosphate) 50 mM, pH 7.2. Compounds were administered intraperitoneally at 1 mg/kg or 3 mg/kg, 15 minutes before ATP injection. Thirty minutes after ATP injection, animals were sacrificed by CO2. Cardiac blood was collected through heart puncture. Peritoneal lavage was performed with a total volume of 4 mL of sterile saline solution with intact peritoneum. IL-1b levels were assessed in peritoneal lavage samples via AlphaLisa. Results were expressed as % reduction compared to vehicle-treated group.
# (§1) For IL-1β quantification, supernatants were analyzed using AlphaLISA kits according to the manufacturer’s instructions (Perkin Elmer AlphaLISA AL220F). Briefly, in a 384-well OptiPlate™ microplate, 5 µl of sample was mixed, with 20 µl of AlphaLISA Anti-Analyte Acceptor beads (10 µg/mL final) and Biotinylated Antibody Anti-Analyte (1 nM final). Then, incubated 60 minutes at RT, then 25 µL of 2X SA-Donor beads (40 µg/mL final) were added and incubated 30 minutes at RT in the dark. Reading was done using an EnVision-Alpha Reader (PerkinElmer).
# [2] = tested on: NLRP3 inflammasome pathway; assay: NLRP3 inflammasome pathway activation assay, Nigericin stimulation, IL-1β release (AlphaLISA); format: cell-based; settings: PMA-differentiated, LPS-primed human monocyte-like cells, Nigericin 3.75 µM for 3 h
# Method: (§2) The following assays were used to determine the inhibitory activity of test compounds on the NLRP3 inflammasome pathway using common stimuli Nigericin (Invivogen) or monosodium urate crystals (MSU) (Invivogen).
# (§3) Human monocyte-like cells were cultured in RPMI-1640 Glutamax medium supplemented with 10% heat inactivated FCS and 50 U/ml penicillin-streptomycin (Life Technologies).
# (§4) Human monocyte-like cells were seeded at 75000 per well in a 96-well plate and were differentiated overnight into macrophages with 10 ng/ml PMA (Phorbol Myristate Acetate). The following day, medium containing 10 ng/ml LPS (Lipopolysaccharide) were added. After 3 hours of LPS priming, concentrations of test compound in the range from 100 µM to 6 nM were added 30 min prior to NLRP3 inflammasome pathway stimulation with Nigericin 3.75 µM or MSU 150 µg/ml for 3 h.
# as §1
# (§5) IC50(concentration corresponding to 50% inhibition) were determined using GraphPad Prism 8.
# [3] = tested on: NLRP3 inflammasome pathway; assay: NLRP3 inflammasome pathway activation assay, MSU stimulation, IL-1β release (AlphaLISA); format: cell-based; settings: PMA-differentiated, LPS-primed human monocyte-like cells, MSU 150 µg/ml for 3 h
# Method: as §2, §3, §4, §1, §5
# [4] = tested on: NLRP3 inflammasome pathway; assay: Human whole blood assay (LPS-ATP), IL-1β levels by AlphaLISA; format: cell-based; settings: LPS priming, ATP activation 1 h, IL-1β in plasma
# Method: • Preliminary blood hemolysis assessment was performed before running the assay. Blood samples were centrifuged at 1000 g for 10 min. Then, 50 to 100 µL of blood were transferred into Corning™96-Well Clear flat bottom plate. Hemolysis was assessed via Tecan at 414 nm wavelength. Hemolysis O.D. values should be lower than 1. • Add 10 µL LPS 9× or CTRL following plate layout. • Add 80 µL of each whole blood/well in PP low-bind 96-well plate. • Incubate for 2h30 to 3 h at 37° C. and 5% CO2. • Add 10 µL of compounds 10× or control in wells following plate layout. • Incubate for 30 min at 37° C. and 5% CO2. • Add 11 µL ATP 10× or control in all wells following plate layout. • Incubate for 1 h at 37° C. and 5% CO2. • Collect 1 h timepoint → Centrifuge the plate 1000 g 10 min, collect the plasma (40 to 50 µL) and store at -20° C. • Measure IL-1β levels by AlphaLISA
# as §1, §5
Molecule,inhibition of IL-1β release in peritoneal lavage samples (FIG. 1) [1],% IL-1 beta inhibition vs vehicle (peritoneal lavage samples) [1] [%],IC50 [2] [nM],IC50 [3] [nM],IC50 [4] [nM],"IC50 ([2]; Homo sapiens, 3 h) [nM]"
"CCOC(=O)C1(c2cc(C(C)(C)O)on2)CN=C(Nc2c3c(cc4c2CCC4)CCC3)O1 (single isomer, unassigned) [Example 16, Ethyl 2-((1,2,3,5,6,7-hexahydro-s-indacen-4-yl)amino)-5-(5-(2-hydroxypropan-2-yl)isoxazol-3-yl)-4,5-dihydrooxazole-5-carboxylate]",significant inhibition,99,< 1000,< 1000,< 1000,
"CCOC(=O)C1(c2ccon2)CN=C(Nc2c3c(cc4c2CCC4)CCC3)O1 (single isomer, unassigned) [Example 21Bb]",,73,,< 1000,< 1000,
"CC(C)OC(=O)C1(c2ccon2)CN=C(Nc2c3c(cc4c2CCC4)CCC3)O1 (single isomer, unassigned) [Example 59, isopropyl 2-((1,2,3,5,6,7-hexahydro-s-indacen-4-yl)amino)-5-(isoxazol-3-yl)-4,5-dihydrooxazole-5-carboxylate]",,,,< 1000,1000 to 10000,
"CCOC(=O)C1(c2nccn2C)CN=C(Nc2c3c(cc4c2CCC4)CCC3)O1 (centres unmarked) [Example 3, Ethyl 2-((1,2,3,5,6,7-hexahvdro-s-indacen-4-vl)amino)-5-(1-methyl-1H-imidazol-2-yl)-4,5-dihydrooxazole-5-carboxylate]",,,,< 1000,,< 1000
"CCOC(=O)C1(c2nccn2C)CN=C(Nc2c3c(cc4c2CCC4)CCC3)O1 (centres unmarked) [Example 4, Ethyl 2-((1,2,3,5,6,7-hexahydro-s-indacen-4-vl)amino)-5-(1-methyl-1H-imidazol-2-yl)-4,5-dihydrooxazole-5-carboxylate]",,,< 1000,< 1000,,
"CCOC(=O)C1(c2ccc(OC)nc2)CN=C(Nc2c3c(cc4c2CCC4)CCC3)O1 (centres unmarked) [Example 6, Ethyl 2-((1,2,3,5,6,7-hexahydro-s-indacen-4-yl)amino)-5-(6-methoxypyridin-3-yl)-4,5-dihydrooxazole-5-carboxylate]",,,,< 1000,,< 1000
"CCOC(=O)C1(c2cccnc2)CN=C(Nc2c3c(cc4c2CCC4)CCC3)O1 (centres unmarked) [Example 11a, Ethyl 2-((1,2,3,5,6,7-hexahydro-s-indacen-4-yl)amino)-5-(pyridin-3-yl)-4,5-dihvdrooxazole-5-carboxylate]",,,,< 1000,,< 1000
"CCOC(=O)C1(c2cccc(Cl)c2)CN=C(Nc2c3c(cc4c2CCC4)CCC3)O1 (centres unmarked) [Example 13, Ethyl 5-(3-chlorophenyl)-2-((1,2,3,5,6,7-hexahydro-s-indacene-4-yl)amino)-4,5-dihvdrooxazole-5-carboxylate]",,,,< 1000,,< 1000
"CCOC(=O)C1(c2cc(C(C)(C)O)on2)CN=C(Nc2c3c(cc4c2CCC4)CCC3)O1 (centres unmarked) [Example 15, Ethyl 2-((1,2,3,5,6,7-hexahvdro-s-indacen-4-yl)amino)-5-(5-(2-hydroxypropan-2-yl)isoxazol-3-yl)-4,5-dihydrooxazole-5-carboxylate]",,,,< 1000,,< 1000
"CC(C)(O)c1cc(C2(C(=O)O)CN=C(Nc3c4c(cc5c3CCC5)CCC4)O2)no1 (centres unmarked) [Example 22, 2-((1,2,3,5,6,7-hexahydro-s-indacen-4-yl)amino)-5-(5-(2-hydroxypropan-2-yl)isoxazol-3-yl)-4,5-dihydrooxazole-5-carboxylic Acid]",,,,< 1000,,1000 to 10000
"CC(C)(O)c1cc(C2(C(=O)O)CN=C(Nc3c4c(cc5c3CCC5)CCC4)O2)no1 (centres unmarked) [Example 23, 2-((1,2,3,5,6,7-hexahydro-s-indacen-4-yl)amino)-5-(5-(2-hydroxypropan-2-yl)isoxazol-3-yl)-4,5-dihydrooxazole-5-carboxylic acid]",significant inhibition,>99,< 1000,,1000 to 10000,
"O=C(O)C1(c2nccs2)CN=C(Nc2c3c(cc4c2CCC4)CCC3)O1 (centres unmarked) [Example 24, 2-((1,2,3,5,6,7-hexahydro-s-indacen-4-yl)amino)-5-(thiazol-2-yl)-4,5-dihydrooxazole-5-carboxylic acid]",,,,1000 to 10000,1000 to 10000,
"O=C(O)C1(c2ccon2)CN=C(Nc2c3c(cc4c2CCC4)CCC3)O1 (centres unmarked) [Example 29, 2-((1,2,3,5,6,7-hexahydro-s-indacen-4-yl)amino)-5-(isoxazol-3-yl)-4,5-dihydrooxazole-5-carboxylate]",,,,< 1000,1000 to 10000,
"CCOC(=O)C(O)(CNC(=S)Nc1c2c(cc3c1CCC3)CCC2)c1cc(C(C)C)on1 (centres unmarked) [Example 46, ethyl 3-(3-(1,2,3,5,6,7-hexahydro-s-indacen-4-yl)thioureido)-2-hydroxy-2-(5-isopropylisoxazol-3-yl)propanoate]",,,< 1000,1000 to 10000,,
"O=C(OC1CCCC1)C1(c2ccon2)CN=C(Nc2c3c(cc4c2CCC4)CCC3)O1 (centres unmarked) [Example 58, Cyclopentyl 2-((1,2,3,5,6,7-hexahvdro-s-indacen-4-vl)amino)-5-(isoxazol-3-yl)-4,5-dihydrooxazole-5-carboxylate]",,,,< 1000,1000 to 10000,
"Ethyl 2-((1,2,3,5,6,7-hexahydro-s-indacen-4-yl)amino)-5-(tetrahvdro-2H-pyran-4-yl)-4,5-dihydrooxazole-5-carboxylate [Example 12]",,,1000 to 10000,1000 to 10000,,
